Experiments:
[1] = test system: VCP^R95G-expressing neurons; experiment: Dendritic spine density of neurons transfected with VCP^WT or VCP^R95G plasmids; format: cell-based, mouse
Protocol: For primary neuronal culture, pregnant mice were sacrificed by subjecting to CO2 inhalation, and the fetal pups were isolated and sacrificed by decapitation. Then, cortical neurons were dissociated from the brains of embryonic mice of 18 days. The obtained neurons were cultured in Neurobasal medium, supplemented with 2% B27 supplement, 0.5 mM glutamine, and 12.5 μM glutamate in the density of 260,000 cells/cm^2. The cells were kept in a 5% CO2-humidified chamber at 37° C. The wild-type VCP gene was amplified by PCR using a forward primer having a nucleotide sequence of SEQ ID NO: 1, and a reverse primer having a nucleotide sequence of SEQ ID NO: 2. The amplified DNA segment was subsequently constructed in to GW1-Myc plasmid. To generate the […] mutation, a pair of primers respectively having nucleotide sequences of SEQ ID NOs: 3 and 4 were used in site-directed mutagenesis with wild-type VCP construct as a template. […] Images of neurons were recorded with a confocal microscope (LSM700, Zeiss) equipped with a Plan-Apochromat 63×NA 1.4 oil objective lens (Zeiss) and captured with Zen acquisition and analysis software (Zeiss) at 20-22° C. as a Z-series of 5-12 sections spaced 0.6-0.8 μm apart. […] To analyze dendritic spine density, the spine number of each dendrite fragment about 20 μm in length, which started from a point 20 μm away from the soma, was manually counted using Image J software. […]

[2] = test system: Nf1^+/- neurons; experiment: Dendritic spine density of wild-type or Nf1^+/- neurons; format: cell-based, mouse
Protocol: For primary neuronal culture, pregnant mice were sacrificed by subjecting to CO2 inhalation, and the fetal pups were isolated and sacrificed by decapitation. Then, cortical neurons were dissociated from the brains of embryonic mice of 18 days. The obtained neurons were cultured in Neurobasal medium, supplemented with 2% B27 supplement, 0.5 mM glutamine, and 12.5 μM glutamate in the density of 260,000 cells/cm^2. The cells were kept in a 5% CO2-humidified chamber at 37° C. Images of neurons were recorded with a confocal microscope (LSM700, Zeiss) equipped with a Plan-Apochromat 63×NA 1.4 oil objective lens (Zeiss) and captured with Zen acquisition and analysis software (Zeiss) at 20-22° C. as a Z-series of 5-12 sections spaced 0.6-0.8 μm apart. The Z-series was then projected into single images. The images were processed with Photoshop (Adobe), with minimal adjustment of brightness or contrast applied to the whole images. To analyze dendritic spine density, the spine number of each dendrite fragment about 20 μm in length, which started from a point 20 μm away from the soma, was manually counted using Image J software. As dendritic spine formation is highly sensitive to culture conditions, each experiment was repeated using the same lot of culture medium. […] To minimize the effects of bias, some of the critical experiments were performed blind by relabeling the samples with the assistance of other lab members.

[3] = test system: Nf1^+/- mice; experiment: Contextual fear conditioning; format: in vivo, mouse
Protocol: To examine the effect of leucine on contextual fear memory, mice (wild-type or Nf1^+/− mice) were provided with normal water or leucine supplement water (0.9-3.6 g/Kg) for 7 days prior to testing, which was continued through the entire behavioral task. Mice were subjected to contextual fear conditioning, which was carried out for 6 days with one trial per day. For the first 5 days, mice were placed into the conditioning chamber for 60 sec, then a single foot shock was performed (0.4 mA intensity for 2 sec). After the foot shock, mice were left in the chamber for another 120 sec before returning to their home cage. On the 6th day, mice were placed into the conditioning chamber for 180 sec without foot shock. Freezing responses during the first 10-60 sec of each trial were videotaped and measured using the FreezeScan 2.0 system (CleverSys). Nf1^+/− mice were used to study the effect of leucine on learning and memory, in which the effect was assessed by contextual fear conditioning as described in Materials and Methods. Briefly, wild-type or Nf1^+/− mice were administered water or leucine, as a supplement in water, for 7 days and then subjected to contextual fear conditioning (FIG. 4A). There was no difference in drinking preference for water or leucine solution between WT and Nf1^+/− mice, nor was there difference in weight gain between the two mice (FIG. 4B).

[4] = test system: Nf1^+/- mice; experiment: Golgi staining of mouse brains for dendritic spine density; format: in vivo; settings: Nf1^+/- mice after taking leucine solution
[5] = test system: ATL-1^R95G; experiment: Dendritic spine density of neurons expressing wild-type or mutant ATL1; format: cell-based, mouse; settings: mutant ATL1 neurons; 2.5 mM or 5 mM leucine, 3 days; P<0.001
Protocol: For primary neuronal culture, pregnant mice were sacrificed by subjecting to CO2 inhalation, and the fetal pups were isolated and sacrificed by decapitation. Then, cortical neurons were dissociated from the brains of embryonic mice of 18 days. The obtained neurons were cultured in Neurobasal medium, supplemented with 2% B27 supplement, 0.5 mM glutamine, and 12.5 μM glutamate in the density of 260,000 cells/cm^2. The cells were kept in a 5% CO2-humidified chamber at 37° C. Mouse Atl1 was amplified by PCR with a primer set respectively having nucleotide sequences of SEQ ID NOs: 5 and 6. The amplified products were subcloned into the Gw1-Myc2b vector. The […] mutant was generated by site directed mutagenesis with a primer set respectively having nucleotide sequences of SEQ ID NOs: 7 and 8. Images of neurons were recorded with a confocal microscope (LSM700, Zeiss) equipped with a Plan-Apochromat 63×NA 1.4 oil objective lens (Zeiss) and captured with Zen acquisition and analysis software (Zeiss) at 20-22° C. as a Z-series of 5-12 sections spaced 0.6-0.8 μm apart. The Z-series was then projected into single images. […] To analyze dendritic spine density, the spine number of each dendrite fragment about 20 μm in length, which started from a point 20 μm away from the soma, was manually counted using Image J software. […]

[6] = test system: SOD1-G93A mice; experiment: Animal model of amyotrophic lateral sclerosis (ALS), survival; format: in vivo, mouse; settings: leucine supplement water 80 mg/day from 120 days old
Protocol: To examine the effect of leucine on ALS, 120 days old mice (wild-type or SOD1-G93A mice) were provided with normal water or leucine supplement water (80 mg/day) until animal died.
SOD1-G93A mouse is an animal model widely used in the art for ALS study. In this example, the SOD1-G93A transgenic mice were used to evaluate the effect of leucine on ALS.

[7] = test system: VCP^R95G-neurons; experiment: Azidohomoalanine (AHA) labelling of protein synthesis in neurons transfected with wild-type or mutant VCP; format: cell-based, mouse; settings: leucine for 3 days, AHA label 1 hour
Protocol: FIG. 1A are confocal microscopy images of neurons that are respectively transfected with specified plasmids respectively expressing wild-type (WT) VCP and mutant VCP, and treated with 2.5 mM leucine for three days and labeled with azidohomoalanine (AHA) for 1 hour according to Example 1 of the present disclosure; the transfected neurons are either pointed by arrows or outlined; scale bar presents 20 μm; FIG. 1B is a histogram depicting the relative AHA intensity of neurons that were respectively transfected with specified plasmids, and treated with different concentrations of leucine for three days and labeled with AHA for 1 hour according to Example 1 of the present disclosure; data from three independent experiments are presented as mean plus standard error of mean (SEM); ns, no significance; ***, P<0.001; For primary neuronal culture, pregnant mice were sacrificed by subjecting to CO2 inhalation, and the fetal pups were isolated and sacrificed by decapitation. Then, cortical neurons were dissociated from the brains of embryonic mice of 18 days. The obtained neurons were cultured in Neurobasal medium, supplemented with 2% B27 supplement, 0.5 mM glutamine, and 12.5 μM glutamate in the density of 260,000 cells/cm^2. The cells were kept in a 5% CO2-humidified chamber at 37° C. […]

SMILES: CC(C)C[C@H](N)C(=O)O [leucine]
- protrusion number of dendrite fragment ([1]; VCP^R95G-dendrite fragment, leucine 2 mM (P<0.01) and 2.5 mM (P<0.001) vs basal, 3 days): significantly increased the protrusion number
- protrusion number of dendrite fragment ([1]; VCP^WT-dendrite fragment, leucine for 3 days): did not produce obvious effect
- protrusion number versus wild-type neurons ([2]; Nf1^+/- neurons, 2.5 mM leucine): equal to that of wild-type neurons
- dendritic spine formation / dendritic spine number ([2]; Nf1^+/- neurons, leucine for 3 days): significantly ameliorated the defect in dendritic spine formation
- number of protrusions ([2]; wild-type dendrite fragment, leucine for 3 days): did not further raise the number of protrusions
- freezing responses versus WT mice ([3]; Nf1^+/- mice after leucine administration): comparable to those of WT mice
- associative memory (freezing response) ([3]; Nf1^+/- mice, leucine supplement water 0.9-3.6 g/Kg, oral): significantly increase the associative memory
- fear memory (freezing response) ([3]; wild-type mice, leucine supplement water 0.9-3.6 g/Kg, oral): did not further enhance the fear memory
- dendritic spine density in brain [4]: increase in dendritic spine density
- dendritic spine number [5]: significantly increased the dendritic spine number
- percentage of survival [6]: significantly increased the percentage of survival
- mean survival time ([6]; control mice 147.3±3.84 days): 172.0 ± 3.96 days
- AHA intensity [7]: dose-dependently increased the AHA intensity
